Where a name gives a salt, the structure may show the parent alone.

One may read the inhibition as the drop in the measured response relative to a control, in per cent.

T1 sequence (P22460 whole entry, canonical isoform): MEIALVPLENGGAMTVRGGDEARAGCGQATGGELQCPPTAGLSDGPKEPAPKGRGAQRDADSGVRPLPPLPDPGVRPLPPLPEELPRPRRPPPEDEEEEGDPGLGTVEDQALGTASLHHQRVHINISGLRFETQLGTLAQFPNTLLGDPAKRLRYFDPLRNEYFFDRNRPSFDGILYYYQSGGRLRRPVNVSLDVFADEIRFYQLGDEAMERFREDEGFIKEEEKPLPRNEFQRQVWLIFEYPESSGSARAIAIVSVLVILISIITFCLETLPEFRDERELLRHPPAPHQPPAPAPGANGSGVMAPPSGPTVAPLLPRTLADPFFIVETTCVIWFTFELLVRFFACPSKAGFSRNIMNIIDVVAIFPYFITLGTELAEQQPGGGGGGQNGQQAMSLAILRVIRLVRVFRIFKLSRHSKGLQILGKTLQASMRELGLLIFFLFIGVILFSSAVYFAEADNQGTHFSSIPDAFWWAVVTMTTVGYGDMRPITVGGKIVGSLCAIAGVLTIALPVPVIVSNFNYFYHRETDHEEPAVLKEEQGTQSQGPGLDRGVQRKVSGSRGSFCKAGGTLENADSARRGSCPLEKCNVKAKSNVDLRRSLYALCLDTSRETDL

This assay addresses T1, human isoform of the Kv1.5 channels (Homo sapiens, UniProt P22460).
T1 construct: expressed in transfected cells; host or cells: HEK293
Kind of assay: FLIPR thallium ion measurement on potassium channel Kv1.5. Type of assay: cell-based. The following applies: HEK293 cells stably transfected with hKv1.5; compound 10 μM, 15 min at 37° C.; fluorescence normalised with 10 μM DPO. On the procedure:
The pharmacological evaluation of the compounds on potassium channel Kv1.5 was undertaken using a 96-well plate and FLIPR technology by thallium ion measurement. The HEK293 cells, transfected in a stable manner with the human isoform of the Kv1.5 channels, are seeded 24 h before the experiment in 96-well plates ([…], 200 μl/well) with polylysine applied in the following culture medium: DMEM, 10% SVF, Penicillin/Streptomycin, G418 as the selection antibiotic.
The FLIPR experiment is undertaken using “FLIPR Potassium Ion Channel Assay Kit”, as indicated by the manufacturer (Molecular Devices).
Briefly, the culture medium is replaced by the solution containing the thallium marker for 90 min at 37° C. On conclusion of this step the compounds for testing are added to a final concentration of 10 μM in the well for 15 min at 37° C. The basic fluorescence is then read for 60 sec. The addition of depolarising medium (20 mM of potassium and 3 mM of final thallium) opens the potassium channels and causes an increase of the fluorescence of the thallium fluorophore corresponding to an influx of thallium ions through the hKv1.5 channels. The measurement is made 30 sec after the injection of the depolarising solution. The application of 10 μM DPO (Tocris, blocker of the Kv1.5 channels) enables the fluorescence to be normalised.
The molecule `Cc1cccc2sc(N3CCCN(C(=O)c4ccccc4NS(=O)(=O)c4cccc5cccnc45)CC3)nc12` [Example 20, N-(2-(4-(4-methylbenzo[d]thiazol-2-yl)-1,4-diazepane-1-carbonyl)-phenyl)quinoline-8-sulfonamide] gave an inhibition at 10 µM of 82.8%.

`O=C(c1ccccc1NS(=O)(=O)c1cccc2cccnc12)N1CCN(c2nc3ccc(Cl)cc3o2)CC1` [Example 17, N-(2-(4-(6-chlorobenzo[d]oxazol-2-yl)piperazine-1-carbonyl)-phenyl)quinoline-8-sulfonamide]: testing at 10 µM gave an inhibition of 70.8%. For `O=C(c1ccccc1NS(=O)(=O)c1ccc(C(F)(F)F)cn1)N1CCN(c2nc3ccc(Cl)cc3s2)CC1` [Example 8, N-(2-(4-(6-chlorobenzo[d]thiazol-2-yl)piperazine-1-carbonyl)phenyl)-5-(trifluoromethyl)pyridine-2-sulfonamide] the value was 94.7%; for `O=C(c1ccccc1NS(=O)(=O)c1cccc2cccnc12)N1CCN(c2nc3ccc(OC(F)(F)F)cc3s2)CC1` [Example 19, N-(2-(4-(6-(trifluoromethoxy)benzo[d]thiazol-2-yl)piperazine-1-carbonyl)phenyl)quinoline-8-sulfonamide], 50.2%. For `O=C(c1ccccc1NS(=O)(=O)c1ccccn1)N1CCN(c2nc3ccc(Cl)cc3s2)CC1` [Example 4, N-(2-(4-(6-chlorobenzo[d]thiazol-2-yl)piperazine-1-carbonyl)phenyl)pyridine-2-sulfonamide hydrochloride] the value was 100%; for `O=S(=O)(Nc1ccccc1OC1CCN(c2nc3cc(Cl)ccc3o2)CC1)c1ccccn1` [Example 24, N-(2-(1-(5-chlorobenzo[d]oxazol-2-yl)piperidin-4-yloxy)phenyl)-pyridine-2-sulfonamide], 81%; for `O=C(c1ccccc1NS(=O)(=O)c1ccccn1)N1CCN(c2nc3ccc(F)cc3s2)CC1` [Example 2, N-(2-(4-(6-fluorobenzo[d]thiazol-2-yl)piperazine-1-carbonyl)phenyl)-pyridine-2-sulfonamide], 100%.

`O=S(=O)(Nc1ccccc1OCC1CCN(c2nc3ccc(F)cc3s2)C1)c1ccccn1` (stereo not shown) [Example 29, N-(2-((1-(6-fluorobenzo[d]thiazol-2-yl)pyrrolidin-3-yl)methoxy)phenyl)pyridine-2-sulfonamide] yielded an inhibition at 10 µM of 64.5%.

`Cc1cccc2sc(N3CCN(C(=O)c4ccccc4NS(=O)(=O)c4ccccn4)CC3)nc12` [Example 5, N-(2-(4-(4-methylbenzo[d]thiazol-2-yl)piperazine-1-carbonyl)phenyl)-pyridine-2-sulfonamide]: the inhibition at 10 µM turned out to be 90%. For `O=C(c1ccccc1NS(=O)(=O)c1ccccn1)N1CCN(c2nc3cc(C(F)(F)F)ccc3s2)CC1` [Example 7, N-(2-(4-(5-(trifluoromethyl)benzo[d]thiazol-2-yl)piperazine-1-carbonyl)phenyl)pyridine-2-sulfonamide] the value was 94.9%; for `O=C(c1ccccc1NS(=O)(=O)c1cccc2cccnc12)N1CCN(c2nc3ccc(Cl)cc3s2)CC1` [Example 18, N-(2-(4-(6-chlorobenzo[d]thiazol-2-yl)piperazine-1-carbonyl)-phenyl)quinoline-8-sulfonamide], 91.5%; for `Cc1cccc2sc(N3CCC(COc4ccccc4NS(=O)(=O)c4ccccn4)C3)nc12` (stereo not shown) [Example 31, N-(2-((1-(4-methylbenzo[d]thiazol-2-yl)pyrrolidin-3-yl)methoxy)phenyl)pyridine-2-sulfonamide], 56%. Take `O=S(=O)(Nc1ccccc1OCC1CCN(c2nc3ccc(Cl)cc3s2)C1)c1ccccn1` (stereo not shown) [Example 30, N-(2-((1-(6-chlorobenzo[d]thiazol-2-yl)pyrrolidin-3-yl)methoxy)phenyl)pyridine-2-sulfonamide]: the inhibition at 10 µM came to 54.1%. Take `COc1cccc2sc(N3CCC(COc4ccccc4NS(=O)(=O)c4ccccn4)C3)nc12` (stereo not shown) [Example 32, N-(2-((1-(4-methoxybenzo[d]thiazol-2-yl)pyrrolidin-3-yl)methoxy)-phenyl)pyridine-2-sulfonamide]: 10 µM produced 53.7% inhibition. The molecule `O=S(=O)(Nc1ccccc1OCC1CCN(c2nc3ccccc3s2)C1)c1ccccn1` (stereo not shown) [Example 28, N-(2-((1-(benzo[d]thiazol-2-yl)pyrrolidin-3-yl)methoxy)phenyl)-pyridine-2-sulfonamide] came in with an inhibition at 10 µM of 76%. For `O=S(=O)(Nc1ccccc1OC1CCN(c2nc3ccccc3s2)CC1)c1ccccn1` [Example 25, N-(2-(1-(benzo[d]thiazol-2-yl)piperidin-4-yloxy)phenyl)pyridine-2-sulfonamide] the value was 90.2%. For `Cc1cccc(S(=O)(=O)Nc2cccc(C(=O)N3CCN(c4nc5ccc(Cl)cc5s4)CC3)c2)n1` [Example 12, N-(3-(4-(6-chlorobenzo[d]thiazol-2-yl)piperazine-1-carbonyl)-phenyl)-6-methylpyridine-2-sulfonamide] the value was 52.6%. For `O=C(c1ccc(NS(=O)(=O)c2ccccn2)cc1)N1CCN(c2nc3ccc(F)cc3o2)CC1` [Example 13, N-(4-(4-(6-fluorobenzo[d]oxazol-2-yl)piperazine-1-carbonyl)phenyl)pyridine-2-sulfonamide] the value was 100%; for `O=C(c1cccc(NS(=O)(=O)c2ccccn2)c1)N1CCN(c2nc3ccc(Cl)cc3s2)CC1` [Example 11, N-(3-(4-(6-chlorobenzo[d]thiazol-2-yl)piperazine-1-carbonyl)phenyl)-pyridine-2-sulfonamide], 75.1%; for `CC(C)(C)c1ccc2oc(N3CCC(Oc4ccccc4NS(=O)(=O)c4ccccn4)CC3)nc2c1` [Example 23, N-(2-(1-(5-tert-butylbenzo[d]oxazol-2-yl)piperidin-4-yloxy)phenyl)pyridine-2-sulfonamide], 51.8%. `O=S(=O)(Nc1ccccc1OC1CCN(c2nc3ccc(Cl)cc3s2)CC1)c1ccccn1` [Example 26]: the inhibition at 10 µM stood at 65.8%. For `Cc1cccc(S(=O)(=O)Nc2ccccc2C(=O)N2CCN(c3nc4ccc(Br)cc4s3)CC2)n1` [Example 9, N-(2-(4-(6-bromobenzo[d]thiazol-2-yl)piperazine-1-carbonyl)phenyl)-6-methylpyridine-2-sulfonamide dihydrochloride] the value was 62.8%. For `Cc1ccc2nc(N3CCC(Oc4ccccc4NS(=O)(=O)c4ccccn4)CC3)oc2c1` [Example 21, N-(2-(1-(6-methylbenzo[d]oxazol-2-yl)piperidin-4-yloxy)phenyl)pyridine-2-sulfonamide] the value was 54.6%; for `O=C(c1ccccc1NS(=O)(=O)c1ccccn1)N1CCN(c2nc3cccc(Cl)c3s2)CC1` [Example 6, N-(2-(4-(7-chlorobenzo[d]thiazol-2-yl)piperazine-1-carbonyl)phenyl)-pyridine-2-sulfonamide], 91.8%; for `O=C(c1ccccc1NS(=O)(=O)c1cccc2cccnc12)N1CCN(c2nc3ccc(Br)cc3s2)CC1` [Example 16, N-(2-(4-(6-bromobenzo[d]thiazol-2-yl)piperazine-1-carbonyl)phenyl)-quinoline-8-sulfonamide], 68%. For `O=S(=O)(Nc1ccccc1OC1CCN(c2nc3ccc(Cl)cc3o2)CC1)c1ccccn1` [Example 22, N-(2-(1-(6-chlorobenzo[d]oxazol-2-yl)piperidin-4-yloxy)phenyl)-pyridine-2-sulfonamide] the value was 58.8%; for `O=S(=O)(Nc1ccccc1OC1CCN(c2nc3ccc(Br)cc3s2)CC1)c1ccccn1` [Example 27, N-(2-(1-(6-bromobenzo[d]thiazol-2-yl)piperidin-4-yloxy)phenyl)-pyridine-2-sulfonamide], 100%. Molecule `O=C(c1ccc(NS(=O)(=O)c2ccccn2)cc1)N1CCN(c2nc3ccc(Cl)cc3s2)CC1` [Example 15, N-(4-(4-(6-chlorobenzo[d]thiazol-2-yl)piperazine-1-carbonyl)-phenyl)pyridine-2-sulfonamide] registered an inhibition at 10 µM of 70.2%. On to `O=C(c1ccccc1NS(=O)(=O)c1ccc(C(F)(F)F)cn1)N1CCN(c2nc3ccc(F)cc3o2)CC1` [Example 1, N-(2-(4-(6-fluorobenzo[d]oxazol-2-yl)piperazine-1-carbonyl)phenyl)-5-(trifluoromethyl)pyridine-2-sulfonamide], for which 10 µM produced 61.4% inhibition.

The molecule `O=C(c1cccc(NS(=O)(=O)c2ccccn2)c1)N1CCN(c2nc3ccc(Cl)cc3o2)CC1` [Example 10, N-(3-(4-(6-chlorobenzo[d]oxazol-2-yl)piperazine-1-carbonyl)-phenyl)pyridine-2-sulfonamide] gave an inhibition at 10 µM of 58.9%.

`O=C(c1ccc(NS(=O)(=O)c2ccccn2)cc1)N1CCN(c2nc3ccc(Cl)cc3o2)CC1` [Example 14, N-(4-(4-(6-chlorobenzo[d]oxazol-2-yl)piperazine-1-carbonyl)phenyl)pyridine-2-sulfonamide] returned an inhibition at 10 µM of 68.7%.
